Like-named read-outs stand apart in the source and are kept apart here.

Series [1] relates to Green Peach Aphid (myzus persicae). Nature of the series: Green Peach Aphid foliar dip test on pepper plants. It counts as in vivo. As to conditions: 120 h, read-out: mortality in comparison with untreated controls. The procedure:
Green Peach Aphid (myzus persicae)
(§1) The active compounds were formulated in 50:50 acetone:water and 100 ppm Kinetic® surfactant.
Pepper plants in the 2nd leaf-pair stage (variety ‘California Wonder’) were infested with approximately 40 laboratory-reared aphids by placing infested leaf sections on top of the test plants. The leaf sections were removed after 24 hours. The leaves of the intact plants were dipped into gradient solutions of the test compound and allowed to dry. Test plants were maintained under fluorescent light (24 hour photoperiod) at about 25° C. and […] relative humidity. Aphid mortality on the treated plants, relative to mortality on check plants, was determined after 5 days.

In series [2] the test system is Cotton Aphid (aphis gossypii). Nature of the series: Cotton Aphid foliar dip test on cotton cotyledons. It counts as in vivo. As to conditions: 120 h, counts after 5 days, read-out: mortality in comparison with untreated controls. The text has this: Cotton Aphid (aphis gossypii)
The active compounds were formulated in 50:50 acetone:water and 100 ppm Kinetic® surfactant (a nonionic wetting agent which is a blend of polyalkyleneoxide modified polydimethylsiloxane and polyoxypropylene-polyoxyethylene copolymers, available from Helena Chemical Company, Memphis, Tenn. 38119, U.S.A.).
Cotton plants at the cotyledon stage (one plant per pot) were infested by placing a heavily infested leaf from the main colony on top of each cotyledon. The aphids were allowed to transfer to the host plant overnight, and the leaf used to transfer the aphids was removed. The cotyledons were dipped in the test solution and allowed to dry. After 5 days, mortality counts were made.

For series [3], the system named is Twospotted Spider Mite (Tetranychus urticae). The experiment in a line: Twospotted Spider Mite dip test on lima bean plants. It counts as in vivo. Particulars: 120 h, read-out: mortality compared to untreated controls. The procedure: Twospotted Spider Mite (Tetranychus urticae)
Lima bean plants in the 1st leaf-pair stage (variety ‘Henderson’) were infested with approximately 100 laboratory-reared mites per leaf by placing infested leaf sections on top of the test plants. The leaf sections were removed after 24 hours. The foliage of the intact plants was dipped into gradient solutions of the test compounds. Mite mortality was determined after 5 days.

The test system of series [4] is Bean Aphid (Aphis fabae). The experiment in a line: Bean Aphid dip test on nasturtium plants. It counts as in vivo. As to conditions: 72 h, after 3 days, read-out: mortality compared to untreated controls. How it is done: Nasturtium plants in the 1st leaf-pair stage (variety ‘Mixed Jewle’ were infested with approximately 25 laboratory-reared aphids by placing infested cut plants on top of the test plants. The cut plants were removed after 24 hours. The foliage and stem of the test plants were dipped into gradient solutions of the test compound. Aphid mortality was determined after 3 days.

Series [5] deals with Silverleaf whitefly (bemisia argentifolii). Nature of the series: Silverleaf whitefly test on dipped cotton cotyledons. It counts as in vivo. As to conditions: 72 h, whitefly adults on cotton, 3 days after treatment, read-out: mortality compared to untreated controls. The procedure: Silverleaf whitefly (bemisia argentifolii)
as §1
Selected cotton plants were grown to the cotyledon state (one plant per pot). The cotyledons were dipped into the test solution to provide complete coverage of the foliage and placed in a well-vented area to dry. Each pot with treated seedling was placed in a plastic cup and 10 to 12 whitefly adults (approximately 3-5 day old) were introduced. The cups were covered with a re-usable screened lid (150 micron mesh polyester screen PeCap from Tetko Inc). Test plants were maintained in the holding room at about 25° C. and 20-40% relative humidity for 3 days avoiding direct exposure to the fluorescent light (24 hour photoperiod) to prevent trapping of heat inside the cup.
Mortality was assessed 3 days after treatment of the plants.

The mark [6] stands for this setting: 300 ppm, green peach aphid on pepper, after 5 days.
Setting [7] is: 300 ppm, spider mite on lima bean, after 5 days.

Take `CN1CCN(c2cccc3ccccc23)CC1` [Compound 5, 1-Methyl-4-(1-naphthyl)-piperazine]: the mortality at 300 ppm in series [1] was > 85%.

In the case of `CN1CCN([C@@H]2C[C@@H](c3ccc(F)cc3)c3ccc(Cl)cc32)CC1` (relative stereo) [Compound 61, Trans-1-[3-(4-fluorophenyl)-6-chloro-2,3-dihydro-1H-inden-1-yl]4-methylpiperazine], the mortality at 300 ppm in series [2] and in series [1] (setting [6]) was > 85% each time. `CCN1CCN(C2=CCCc3ccccc32)CC1` came in with a melting point of 68 to 70 °C. Regarding `CN1CCN(c2nccc3ccccc23)CC1` [Compound 12, 1-(1-Isoquinolinyl)-4-methylpiperazine], the mortality at 300 ppm in series [3] was > 70%. Turning to `CN1CCN(C2=CCCc3ccc(F)cc32)CC1` [Compound 21, 1-(7-Fluoro-3,4-dihydro-1-naphthalenyl)-4-methylpiperazine], in series [3] (setting [7]), the mortality at 300 ppm is > 70%.

For the compound `CN1CCN(C2CCc3ccccc3C2)CC1` (stereo not shown) [Compound 14, 1-(1,2,3,4-Tetrahydro-2-naphthalenyl)-4-methylpiperazine], the mortality at 300 ppm in series [3] (setting [7]) is > 70%. Regarding `CN1CCN(C2CCSc3ccc(Cl)cc32)CC1` (stereo not shown) [Compound 16, 1-(6-Chloro-3,4-dihydro-2H-thiochromen-4-yl)-4-methylpiperazine], the mortality at 300 ppm in series [2] is > 85%; in series [1] (setting [6]), > 85%; in series [4], > 70%. On to `CN1CCN(C2CCCc3ccc(F)cc32)CC1` (stereo not shown) [Compound 20, 1-(7-Fluoro-1,2,3,4-tetrahydro-1-naphthalenyl)-4-methylpiperazine], for which the mortality at 300 ppm in series [2] was > 85%; in series [1] (setting [6]), > 85%; in series [5], > 95%; in series [3] (setting [7]), > 70%.

Compound `CN1CCN(C2=Cc3ccccc3C2)CC1` registered a melting point of 158 to 160 °C. On the same count and under the same terms, with `CCN1CCN(C2=Cc3ccccc3C2)CC1` the figure was 124 to 126 °C.

For the origin of these results see patent US20060166984A1, “Amino substituted benzo(hetero)cyclic derivatives” (priority 2003, published 2006).
